Measured values as given in patent publication US12133855B2, “Lipid-like nanocomplexes and uses thereof” (Trustees of Tufts College, priority 2018, dated 2024).

Experiments:
[1] = tested on: Cy5-RNA; assay: RNA binding test of lipidoid nanoparticles; type: physicochemical
Method: Lipidoids were fabricated into nanoparticles for all delivery applications. Briefly, lipidoids were mixed with sodium acetate buffer (25 mM, pH 5.2), sonicated for 30 min in an ultrasonic bath, followed by another 30 min of vigorous vortexing. The as-prepared blank LNPs were stored at 4° C. For Cy5-RNA/LNP, mRNA/LNP and protein/LNP complexation, blank lipidoid nanoparticles were mixed with RNA molecules or (−30)GFP-Cre protein in PBS buffer (pH 7.4) following our previously reported procedures and incubated at room temperature for another 30 min before use. Typical procedures for Nile red encapsulation are as follows: 5 μL of Nile red stock solution in acetone was added into an empty vial, which was then placed in a vacuum oven to completely remove the organic solvent. Then, a predetermined amount of blank LNP stock solution (1.0 mg/mL) was added into the vial. The mixture was sonicated for 40 min in an ultrasonic bath and stirred overnight at room temperature. The final concentration of Nile red was adjusted to 6.6×10-7 mol L-1 and 6×10-7 mol L-1 for thiol triggered release study and cell incubation, respectively, by diluting with PBS as necessary. Typical procedures for CPT and DiO/DiI FRET pair encapsulation are as follows: 100 μL of DiO/DiI stock solution in MeOH was charged into an empty vial and placed in a vacuum oven to remove the organic solvent. Lipidoids (2.0 mg) in 200 μL of methanol were then added into the vial and stirred to produce a homogeneous solution. Then, 600 μL of DI water was added dropwise in 10 min with continuous stirring. The resulting mixture was dialyzed against DI water for 24 h (Thermo Scientific Slide-A-Lyzer Dialysis Cassette, MWCO=3500 Da), and fresh water was replaced every 4 h. Typical procedures for encapsulation of calcein and doxonorubicin hydrochloride are as follows: precalculated amounts of calcein or Dox stock solutions in DI water was diluted into 800 μL with sodium acetate buffer, and used as the selective solvents to trigger the self-assembly process of lipidoids in methanol (5 mg/mL), respectively. […]

[2] = tested on: HeLa cells; assay: Internalization of calcein loaded nanoparticles; type: cell-based; conditions: 8 h of exposure
Method: The internalization kinetics and efficiencies of OCholB LNPs were then studied using NR loaded LNPs and HeLa cells. […] Next, all of the NR delivery efficiencies of eight OCholB LNPs were determined after 8 h of exposure. […] Representative fluorescent images of NR/LNPs (NR/75-OCholB, NR/76-OCholB and NR/77-OCholB) treated HeLa cells are shown in FIG. 12D, from which it is easily observed that NR was delivered into the cells and mainly distributed in cytoplasm, by OCholB LNPs. Next, the internalization of negatively charged hydrophilic fluorescent dye, calcein, was studied. […] Next, the use of OCholB LNPs for the intracellular delivery of macromolecular cargo was explored, using fluorescent recombinant (−30)GFP-Cre protein and HeLa-DsRed cells as the model system. […] Delivery efficiency was tested at a range of (−30)GFP-Cre protein concentrations (25, 50 and 100 nM), with a consistent lipid/protein ratio (i.e., delivery with the final lipid concentration of 1.7, 3.3, and 6.6 μg mL^−1 respectively). 33.2%, 43.8% and 74% of GFP positive (GFP^+) cells were recorded for (−30)GFP-Cre/Lpf2k treated cells with the concentration of (−30)GFP-Cre 25 nM, 50 nM and 100 nM, respectively. […]

[3] = 10/1 weight ratio, DTT (10 mM, 24 h) treated nanoparticles

CCN(CC)CCN(CCC(=O)OCCSSCCNC(=O)OC1CCC2(C)C(=CCC3C2CCC2(C)C(C(C)CCCC(C)C)CCC32)C1)CCC(=O)OCCSSCCNC(=O)OC1CCC2(C)C(=CCC3C2CCC2(C)C(C(C)CCCC(C)C)CCC32)C1 (stereo not shown) [Lipidoid 75-OCholB]
RNA molecules complexed with LNPs ([1]; 10/1 weight ratio lipidoid/Cy5-RNA): 82.9%
RNA binding efficacy [1, 3]: 15.5%
unbound Cy5-RNA [1, 3]: 84.5%
mean fluorescent intensity vs free calcein-treated cells [2]: ~9.4 folds
